Measurements reported in the supplement of paper PMC13380429.

What was measured:
Conditions in all cases: 72 h
Calu-3 [1] = assay: cell viability relative to DMSO; higher = less toxic
HepG2 [2] = assay: as above
U2OS [3] = assay: as above
Vero E6 [4] = assay: as above
Calu-3 [5] = assay: relative viability EC50 (midpoint between 100% and the lowest measured viability); higher = less toxic
HepG2 [6] = assay: as above
U2OS [7] = assay: as above
Vero E6 [8] = assay: as above
Calu-3 [9] = assay: drug sensitivity score (DSS) for viability; higher = more toxic; extreme values may be limits of the assay
HepG2 [10] = assay: as above
U2OS [11] = assay: as above
Vero E6 [12] = assay: as above
Caco-2 [13] = assay: cell viability relative to DMSO; higher = less toxic
Caco-2 [14] = assay: relative viability EC50 (midpoint between 100% and the lowest measured viability); higher = less toxic
Caco-2 [15] = assay: drug sensitivity score (DSS) for viability; higher = more toxic; extreme values may be limits of the assay

| SMILES | cell viability (Calu-3 [1]; 1 nM) [%] | cell viability (Calu-3 [1]; 10 nM) [%] | cell viability (Calu-3 [1]; 100 nM) [%] | cell viability (Calu-3 [1]; 1000 nM) [%] | cell viability (Calu-3 [1]; 10000 nM) [%] | cell viability (HepG2 [2]; 1 nM) [%] | cell viability (HepG2 [2]; 10 nM) [%] | cell viability (HepG2 [2]; 100 nM) [%] | cell viability (HepG2 [2]; 1000 nM) [%] | cell viability (HepG2 [2]; 10000 nM) [%] | cell viability (U2OS [3]; 1 nM) [%] | cell viability (U2OS [3]; 10 nM) [%] | cell viability (U2OS [3]; 100 nM) [%] | cell viability (U2OS [3]; 1000 nM) [%] | cell viability (U2OS [3]; 10000 nM) [%] | cell viability (Vero E6 [4]; 1 nM) [%] | cell viability (Vero E6 [4]; 10 nM) [%] | cell viability (Vero E6 [4]; 100 nM) [%] | cell viability (Vero E6 [4]; 1000 nM) [%] | cell viability (Vero E6 [4]; 10000 nM) [%] | relative viability EC50 (Calu-3 [5]) [µM] | relative viability EC50 (HepG2 [6]) [µM] | relative viability EC50 (U2OS [7]) [µM] | relative viability EC50 (Vero E6 [8]) [µM] | drug sensitivity score (Calu-3 [9]) | drug sensitivity score (HepG2 [10]) | drug sensitivity score (U2OS [11]) | drug sensitivity score (Vero E6 [12]) | cell viability (Caco-2 [13]; 1 nM) [%] | cell viability (Caco-2 [13]; 10 nM) [%] | cell viability (Caco-2 [13]; 100 nM) [%] | cell viability (Caco-2 [13]; 1000 nM) [%] | cell viability (Caco-2 [13]; 10000 nM) [%] | relative viability EC50 (Caco-2 [14]) [µM] | drug sensitivity score (Caco-2 [15]) |
| --- | --- | --- | --- | --- | --- | --- | --- | --- | --- | --- | --- | --- | --- | --- | --- | --- | --- | --- | --- | --- | --- | --- | --- | --- | --- | --- | --- | --- | --- | --- | --- | --- | --- | --- | --- |
| CN(C)CCCN1c2ccccc2CCc2ccccc21 [imipramine] | 88.8 | 105 | 96.1 | 108 | 94.3 | 95.9 | 102 | 104 | 95.3 | 98.1 | 101 | 103 | 96 | 102 | 90.4 | 100 | 98.7 | 99.4 | 96.6 | 98.5 | > 10 | > 10 | > 10 | > 10 | 0 | 0 | 0 | 0 |  |  |  |  |  |  |  |
| CCN(CC)CC(=O)Nc1c(C)cccc1C [lidocaine] |  |  |  |  |  | 101 | 97.4 | 88.1 | 116 | 107 | 99.7 | 105 | 94.8 | 97.2 | 100 | 108 | 101 | 105 | 97.8 | 97.9 |  | > 10 | > 10 | > 10 |  | 0 | 0 | 0 | 103 | 108 | 90.8 | 80.4 | 97 | > 10 | 3.6 |
| Cc1ccc(F)c(NC(=O)Nc2ccc(-c3cccc4[nH]nc(N)c34)cc2)c1 [linifanib] | 106 | 89.4 | 99.1 | 86.9 | 69.9 | 94.1 | 110 | 115 | 29.9 | 13.1 | 97.4 | 96.6 | 101 | 96.5 | 92.2 | 93.1 | 101 | 99.9 | 103 | 110 |  | 0.583 | > 10 | > 10 | 2.7 | 12.8 | 0 | 0 | 101 | 100 | 101 | 89.5 | 106 | > 10 | 0 |
| COC(=O)N1CC[C@@H]2[C@H]1CCC[C@@]2(O)C#Cc1cccc(C)c1 [mavoglurant] |  |  |  |  |  | 102 | 107 | 95.5 | 91.8 | 114 | 103 | 99.9 | 102 | 101 | 95.8 | 104 | 101 | 106 | 104 | 97.4 |  | > 10 | > 10 | > 10 |  | 0 | 0 | 0 | 110 | 120 | 100 | 98.4 | 108 | > 10 | 0 |
| CN(C(=O)CN(CCO)CC(=O)N(C)C(C)(C)Cc1ccccc1)C(C)(C)Cc1ccccc1 [oxethazaine] | 94.4 | 101 | 100 | 97.6 | 42.2 | 104 | 101 | 98.9 | 111 | 91.2 | 99.7 | 97.5 | 101 | 97.2 | 68.2 | 94.8 | 97.7 | 93.7 | 99.8 | 101 | 2.86 | > 10 |  | > 10 | 3.4 | 0 | 1.9 | 0 | 90.7 | 105 | 102 | 93.1 | 74.6 |  | 1.9 |
| Cc1ccc(C(=O)Cn2c3c(sc2=N)CCCC3)cc1 [pifithrin-alpha] |  |  |  |  |  | 106 | 97.3 | 101 | 100 | 99 | 96.6 | 97.5 | 92.9 | 94.4 | 93.5 | 98.9 | 97.2 | 100 | 98.9 | 96.1 |  | > 10 | > 10 | > 10 |  | 0 | 0 | 0 | 102 | 89.9 | 97.1 | 99.3 | 90.1 | > 10 | 0 |
| Fc1ccc(C(OCCN2CCN(CCCc3ccccc3)CC2)c2ccc(F)cc2)cc1 [vanoxerine] | 102 | 94.6 | 102 | 98.9 | 81.2 | 102 | 102 | 102 | 104 | 11 | 106 | 102 | 103 | 102 | 72.4 | 107 | 104 | 104 | 97.1 | 35.3 | > 10 | 3.42 |  | 2.82 | 0.6 | 4.6 | 1 | 3.9 | 103 | 93.2 | 99.9 | 93.1 | 50.3 |  | 3.8 |
| CC(C)(C)S(=O)(=O)N[C@H]1CC[C@H](C(=O)Nc2ccc(C(F)(F)F)cn2)CC1 [velneperit] | 106 | 103 | 117 | 95.5 | 99.1 | 100 | 105 | 105 | 98.9 | 98 |  |  |  |  |  | 94.4 | 104 | 98.4 | 101 | 94.5 | > 10 | > 10 |  | > 10 | 0 | 0 |  | 0 | 109 | 98.1 | 103 | 91.7 | 104 | > 10 | 0 |
